Measurements as given in patent publication US20130143929A1, “FUNGICIDAL IMIDAZOLES” (EI DU PONT DE NEMOURS AND COMPANY, priority 2010, published 2013).
Marks after values point to notes of the source that are not given here.

Columns and labels:
Assay type in all cases: in vivo
[1] = system: Septoria tritici (the causal agent of wheat leaf blotch); experiment: Test B: wheat leaf blotch, preventive spray on wheat seedlings, visual disease rating; settings: for Test B rating (100 = 100% disease control, 0 = no disease control relative to the controls): wheat leaf blotch, preventive spray on wheat seedlings; for Test B rating (% disease control, wheat leaf blotch): no asterisk: standard test suspension concentration, 100 = 100% disease control, 0 = no control relative to controls
Summary of the method: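 Wheat seedlings sprayed to run-off with compound suspension (acetone/water with 250 ppm Trem 014; 200 ppm ≈ 800 g/ha, some at 40 ppm), inoculated next day with Septoria tritici spores. 48 h saturated humidity at 24 °C, then 19 days at 20 °C; visual rating, 100 = full control.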

[2] = system: Blumeria graminis f. sp. tritici (also known as Erysiphe graminis f. sp. tritici, the causal agent of wheat powdery mildew); experiment: Test D: wheat powdery mildew, preventive spray on wheat seedlings, visual disease rating; settings: for Test D rating (100 = 100% disease control, 0 = no disease control relative to the controls): wheat powdery mildew, preventive spray on wheat seedlings; for Test D rating (% disease control, wheat powdery mildew): no asterisk: standard test suspension concentration, 100 = 100% disease control, 0 = no control relative to controls
Summary of the method: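 Compound suspended in acetone/water (50/50) with 250 ppm Trem 014 and sprayed to run-off on wheat seedlings (200 ppm ≈ 800 g/ha), then inoculated next day with spore dust. Disease rated visually after 8 days at 20 °C as % control relative to untreated plants (0-100).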

[3] = system: Botrytis cinerea (the causal agent of tomato Botrytis); experiment: Test C: tomato Botrytis, preventive spray on tomato seedlings, visual disease rating; settings: for Test C rating (100 = 100% disease control, 0 = no disease control relative to the controls): tomato Botrytis, preventive spray on tomato seedlings; for Test C rating (% disease control, tomato Botrytis): no asterisk: standard test suspension concentration, 100 = 100% disease control, 0 = no control relative to controls
Summary of the method: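 Test suspension (acetone/water with 250 ppm Trem 014; 200 ppm equivalent to 800 g/ha) sprayed to run-off on tomato seedlings; B. cinerea spores inoculated next day. After 48 h saturated humidity at 20° C then 3 days at 24° C, disease rated visually as % control relative to untreated controls (0–100).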

[4] = system: Puccinia recondite f. sp. tritici (the causal agent of wheat leaf rust); experiment: Test A: wheat leaf rust, preventive spray on wheat seedlings, visual disease rating; settings: for Test A rating (100 = 100% disease control, 0 = no disease control relative to the controls): wheat leaf rust, preventive spray on wheat seedlings; for Test A rating (% disease control, wheat leaf rust): no asterisk: standard test suspension concentration, 100 = 100% disease control, 0 = no control relative to controls
Summary of the method: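 Wheat seedlings were sprayed to run-off with compound suspended in acetone/water containing 250 ppm Trem 014 (200 ppm ≈ 800 g/ha; some at 40 ppm). Puccinia recondite spores were inoculated the next day. Plants were held 24 h saturated at 20° C, then 7 days at 20° C, and disease control was rated visually on a 0–100 scale against controls.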

[5] = asterisk: 40 ppm test suspension
[6] = no asterisk (standard test suspension concentration, not 40 ppm)

| SMILES | Test B rating (100 = 100% disease control, 0 = no disease control relative to the controls) [1, 5] | Test D rating (100 = 100% disease control, 0 = no disease control relative to the controls) [2, 5] | Test C rating (100 = 100% disease control, 0 = no disease control relative to the controls) [3, 5] | Test A rating (100 = 100% disease control, 0 = no disease control relative to the controls) [4, 5] | Test B rating (100 = 100% disease control, 0 = no disease control relative to the controls) [1, 6] | Test D rating (100 = 100% disease control, 0 = no disease control relative to the controls) [2, 6] | Test C rating (100 = 100% disease control, 0 = no disease control relative to the controls) [3, 6] | Test A rating (100 = 100% disease control, 0 = no disease control relative to the controls) [4, 6] | also measured |
| --- | --- | --- | --- | --- | --- | --- | --- | --- | --- |
| Cc1nc(Cl)c(C(O)c2c(Cl)cccc2Cl)n1-c1c(F)cccc1F (stereo not shown) [compound 193] | 100* % | 0* % | 59* % | 99* % | – | – | – | – | – |
| Cc1cc(F)ccc1C(O)c1c(Cl)nc(C)n1-c1ccc(F)cc1Cl (stereo not shown) [compound 398] | – | – | – | – | – | – | – | – | Test B rating (% disease control, wheat leaf blotch) [1]: 100%; Test D rating (% disease control, wheat powdery mildew) [2]: 0%; Test C rating (% disease control, tomato Botrytis) [3]: 46%; Test A rating (% disease control, wheat leaf rust) [4]: 100% |
| Cc1nc(Cl)c(C(O)c2ccc(F)cc2Br)n1-c1ccc(F)cc1F (stereo not shown) [compound 313] | 100* % | 0* % | 17* % | 100* % | – | – | – | – | – |
| COc1ccc(C(O)c2c(Cl)nc(C)n2-c2ccc(F)cc2F)c(F)c1 (stereo not shown) [compound 306] | 100* % | 0* % | 97* % | 100* % | – | – | – | – | – |
| Cc1ncc(C(O)c2ccc(Cl)cc2)n1-c1ccc(F)cc1Br (stereo not shown) [compound 139] | – | – | – | – | 49% | 0% | 0% | 86% | – |
| Cc1cc(F)ccc1C(O)c1c(Cl)nc(C)n1-c1c(F)cc(Cl)cc1F (stereo not shown) [compound 111] | 100* % | 0* % | 0* % | 98* % | – | – | – | – | – |
| Cc1ncc(C(O)c2ccc(F)cc2Br)n1-c1c(F)cc(F)cc1Br (stereo not shown) [compound 94] | – | – | – | – | 100% | 56% | 99% | 100% | – |
| Cc1ncn(-c2ccc(F)cc2Cl)c1C(O)c1ccc(Cl)cc1Cl (racemic) [compound 33] | – | 0* % | – | – | 100% | – | 100% | 100% | – |
| Cc1ncc(C(O)c2cccnc2)n1-c1c(F)cc(F)cc1F (stereo not shown) [compound 181] | – | – | – | – | 1% | 0% | 0% | 0% | – |
| Cc1ncc(C(O)c2ccc(Cl)cc2Cl)n1-c1c(F)cc(F)cc1Cl (stereo not shown) [compound 371] | – | – | – | – | 100% | 0% | 58% | 95% | – |
| Cc1nc(Cl)n(-c2c(F)cc(Cl)cc2F)c1C(O)c1ccc(F)cc1F (racemic) [compound 273] | 100* % | 0* % | 99* % | 100* % | – | – | – | – | – |
| Cc1nc(Br)c(C(O)c2c(F)cc(F)cc2F)n1-c1ccc(Cl)cc1 (stereo not shown) [compound 353] | – | – | – | – | 44% | 0% | 28% | 9% | – |
| OC(c1ccc(F)cc1F)c1c(Br)nc(Cl)n1-c1c(F)cc(Cl)cc1F (stereo not shown) [compound 124] | 100* % | 0* % | 100* % | 100* % | – | – | – | – | – |
| COc1cc(F)c(C(O)c2c(Br)nc(C)n2-c2ccc(F)cc2F)c(F)c1 (racemic) [compound 258] | – | – | – | – | 95% | 0% | 79% | 100% | – |
| Cc1cc(F)ccc1C(O)c1c(Cl)nc(C)n1-c1c(F)cc(F)cc1Br (stereo not shown) [compound 315] | 100* % | 96* % | 96* % | 99* % | – | – | – | – | – |
| OC(c1ccc(F)cc1Br)c1c(Cl)nc(C2CC2)n1-c1c(F)cccc1Br (stereo not shown) [compound 72] | – | – | – | – | 100% | 43% | 0% | 79% | – |
| Cc1nc(Br)c(C(O)c2ccc(Cl)cc2)n1-c1ccc(F)cc1Cl (stereo not shown) [compound 60] | – | – | – | – | 100% | 73% | 99% | 100% | – |
| OC(c1ccc(F)cc1F)c1c(Br)ncn1-c1c(F)cccc1F (stereo not shown) [compound 96] | 100* % | 0* % | 40* % | 68* % | – | – | – | – | – |
| Cc1cc(F)ccc1C(O)c1c(Br)nc(C)n1-c1ccc(F)cc1F (stereo not shown) [compound 379] | – | – | – | – | – | – | – | – | Test B rating (% disease control, wheat leaf blotch) [1]: 100%; Test D rating (% disease control, wheat powdery mildew) [2]: 79%; Test C rating (% disease control, tomato Botrytis) [3]: 99%; Test A rating (% disease control, wheat leaf rust) [4]: 100% |
| Cc1nc(Br)c(C(O)c2c(F)cc(F)cc2F)n1-c1ccc(F)cc1Br (stereo not shown) [compound 176] | – | – | – | – | 100% | 96% | 100% | 100% | – |
| COc1ccc(-n2c(C)nc(Br)c2C(O)c2ccc(F)cc2Cl)c(OC)c1 (racemic) [compound 217] | 0* % | 0* % | 42* % | 0* % | – | – | – | – | – |
| Cc1cc(F)ccc1C(O)c1c(C)ncn1-c1c(F)cc(F)cc1Cl (racemic) [compound 15] | 0* % | – | – | – | – | 0% | 15% | 0% | – |
| OC(c1ccc(F)cc1Cl)c1c(Br)nc(C2CC2)n1-c1c(F)cccc1Br (stereo not shown) [compound 150] | – | – | – | – | 100% | 27% | 0% | 85% | – |
| Cc1nc(Br)c(C(O)c2ccc(F)cc2Cl)n1-c1c(F)cccc1Cl (stereo not shown) [compound 188] | 100* % | 99* % | 99* % | 100* % | – | – | – | – | – |
| Cc1cc(F)ccc1C(O)c1c(Br)nc(C)n1-c1c(F)cccc1Br (stereo not shown) [compound 406] | – | – | – | – | – | – | – | – | Test B rating (% disease control, wheat leaf blotch) [1]: 100%; Test D rating (% disease control, wheat powdery mildew) [2]: 56%; Test C rating (% disease control, tomato Botrytis) [3]: 43%; Test A rating (% disease control, wheat leaf rust) [4]: 100% |
